Legend:
Format in all cases: biochemical
[1] = target: T1, human macrophage elastase (HME/hMMP-12) (Homo sapiens, UniProt P39900); experiment: In vitro HME inhibition test (standard or high-sensitivity); conditions: in some cases mean values
T1 construct: 0.5 nM HME; purchased R&D Systems 917-MP
In short: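 Fluorogenic assay: 0.5 nM autoactivated HME with 5 µM Mca-Pro-Leu-Gly-Leu-Glu-Glu-Ala-Dap(Dnp)-NH2 in HEPES pH 7.4 buffer (NaCl, CaCl2, ZnCl2, EDTA, Brij), 2 h at 37 °C; ex 323/em 393 nm. IC50 from fluorescence versus concentration. High-sensitivity format: ~0.05 nM enzyme, ~16 h incubation.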

[2] = target: T2, MMP-3 (Homo sapiens, UniProt P08254); experiment: In vitro MMP-3 inhibition test
T2 construct: purchased R&D Systems 513-MP
T2 sequence (P08254 100-477): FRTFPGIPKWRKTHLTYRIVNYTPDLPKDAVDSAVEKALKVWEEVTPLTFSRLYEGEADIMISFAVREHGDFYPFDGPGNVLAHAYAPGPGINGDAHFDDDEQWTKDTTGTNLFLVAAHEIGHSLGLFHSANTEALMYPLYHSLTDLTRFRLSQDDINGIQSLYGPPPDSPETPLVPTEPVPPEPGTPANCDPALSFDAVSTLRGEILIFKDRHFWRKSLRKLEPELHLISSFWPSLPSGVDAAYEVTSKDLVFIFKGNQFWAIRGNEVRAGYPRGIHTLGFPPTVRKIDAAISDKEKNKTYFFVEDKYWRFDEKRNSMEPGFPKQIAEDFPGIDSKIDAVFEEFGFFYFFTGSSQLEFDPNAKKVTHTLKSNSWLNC
From the text: (§1) The MMP-mediated amidolytic cleavage of a suitable peptide substrate leads to an increase in fluorescent light here too. The signal intensity of the fluorescent light is directly proportional to the enzyme activity. The active concentration of a test compound at which half the enzyme is inhibited (50% signal intensity of the fluorescent light) is reported as the IC50 value.
Recombinant MMP-3 (from R&D Systems, 513-MP) is chemically activated in accordance with the manufacturer's instructions using APMA. 1 μl of the test compound to be analysed (as a solution in DMSO, suitable concentrations, for example, 1 nM to 30 μM) is pipetted into 24 μl of activated enzyme (final concentration, for example, 2 nM) in reaction buffer (50 mM Tris/HCl pH 7.5, 10 mM CaCl2, 150 mM NaCl, 0.05% Brij®-35) in a white 384-hole microtiter plate (MTP). The enzymatic reaction is started by adding the intramolecularly quenched Mca-Arg-Pro-Lys-Pro-Val-Glu-Nval-Trp-Arg-Lys(Dnp)-NH2 substrate (final concentration, for example, 10 μM; R&D Systems, ES-002), so as to result in a total test volume of 50 The course of the MMP-3 reaction is measured by measuring the fluorescence intensity (excitation 320 nm, emission 410 nm) over a suitable period of time (for example over 120 min at a temperature of 32° C.).

[3] = target: T3, MMP-8 (Homo sapiens, UniProt P22894); experiment: In vitro MMP-8 inhibition test
T3 construct: purchased R&D Systems 908-MP
T3 sequence (P22894 101-467): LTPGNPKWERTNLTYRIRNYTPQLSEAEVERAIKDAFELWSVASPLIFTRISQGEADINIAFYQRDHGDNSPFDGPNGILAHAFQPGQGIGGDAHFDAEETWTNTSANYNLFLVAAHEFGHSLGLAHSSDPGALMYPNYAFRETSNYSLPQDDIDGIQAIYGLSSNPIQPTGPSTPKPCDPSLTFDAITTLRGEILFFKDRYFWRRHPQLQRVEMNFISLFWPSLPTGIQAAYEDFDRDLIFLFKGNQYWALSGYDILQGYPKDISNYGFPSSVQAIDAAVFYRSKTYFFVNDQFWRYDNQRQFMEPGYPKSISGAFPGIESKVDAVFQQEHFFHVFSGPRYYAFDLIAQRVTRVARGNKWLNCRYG
From the text: as §1
(§2) Recombinant MMP-8 (from R&D Systems, 908-MP) is chemically activated in accordance with the manufacturer's instructions using APMA. 1 μl of the test compound to be analysed (as a solution in DMSO, suitable concentrations, for example, 1 nM to 30 μM) is pipetted into 24 μl of activated enzyme (final concentration, for example, 0.5 nM) in reaction buffer (50 mM Tris/HCl pH 7.5, 10 mM CaCl2, 150 mM NaCl, 0.05% Brij®-35) in a white 384-hole microtiter plate (MTP). The enzymatic reaction is started by adding the intramolecularly quenched Mca-Pro-Leu-Gly-Leu-Dpa(Dnp)-Ala-Arg-NH2 substrate (final concentration, for example, 10 μM; R&D Systems, ES-001), so as to result in a total test volume of 50 μl. The course of the MMP-8 reaction is measured by measuring the fluorescence intensity (excitation 320 nm, emission 410 nm) over a suitable period of time (for example over 120 min at a temperature of 32° C.).

[4] = target: T4, MMP-9 (Homo sapiens, UniProt P14780); experiment: In vitro MMP-9 inhibition test
T4 construct: purchased R&D Systems 911-MP
T4 sequence (P14780 107-707 limits assumed): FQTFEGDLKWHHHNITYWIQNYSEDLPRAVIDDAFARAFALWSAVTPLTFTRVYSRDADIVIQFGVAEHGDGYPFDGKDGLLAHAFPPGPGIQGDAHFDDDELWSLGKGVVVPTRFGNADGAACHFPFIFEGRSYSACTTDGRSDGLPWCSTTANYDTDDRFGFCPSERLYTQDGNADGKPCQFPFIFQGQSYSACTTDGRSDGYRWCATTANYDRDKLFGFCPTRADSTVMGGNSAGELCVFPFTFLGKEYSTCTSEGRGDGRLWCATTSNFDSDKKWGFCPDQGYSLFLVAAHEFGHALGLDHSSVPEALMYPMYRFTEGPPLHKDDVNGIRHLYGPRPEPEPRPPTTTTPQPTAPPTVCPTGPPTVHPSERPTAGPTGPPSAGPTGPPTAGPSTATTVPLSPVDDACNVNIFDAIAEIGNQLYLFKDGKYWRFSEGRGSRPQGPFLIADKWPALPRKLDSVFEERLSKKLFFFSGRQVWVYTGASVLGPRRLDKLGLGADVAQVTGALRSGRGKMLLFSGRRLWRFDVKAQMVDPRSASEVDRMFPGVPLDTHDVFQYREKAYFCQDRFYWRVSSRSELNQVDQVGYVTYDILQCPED
From the text: as §1
as §2, with “MMP-9” for “MMP-8”, “911-MP)” for “908-MP)”, “0.1” for “0.5”

[5] = target: T5, MMP-10 (Homo sapiens, UniProt P09238); experiment: In vitro MMP-10 inhibition test
T5 construct: purchased R&D Systems 910-MP
T5 sequence (P09238 99-476): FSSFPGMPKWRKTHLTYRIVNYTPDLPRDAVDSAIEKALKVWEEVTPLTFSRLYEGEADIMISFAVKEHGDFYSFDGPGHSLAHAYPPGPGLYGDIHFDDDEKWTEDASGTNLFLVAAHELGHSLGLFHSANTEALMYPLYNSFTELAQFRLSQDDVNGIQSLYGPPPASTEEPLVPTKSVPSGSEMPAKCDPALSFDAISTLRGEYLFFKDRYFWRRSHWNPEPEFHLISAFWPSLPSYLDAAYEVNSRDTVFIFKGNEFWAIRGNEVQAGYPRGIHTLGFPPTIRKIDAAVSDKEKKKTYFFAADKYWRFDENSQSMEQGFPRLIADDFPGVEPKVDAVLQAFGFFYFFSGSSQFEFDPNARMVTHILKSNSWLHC
From the text: as §1
Recombinant MMP-10 (from R&D Systems, 910-MP) is chemically activated in accordance with the manufacturer's instructions using APMA. 1 μl of the test compound to be analysed (as a solution in DMSO, suitable concentrations, for example, 1 nM to 30 μM) is pipetted into 24 μl of activated enzyme (final concentration, for example, 2 nM) in reaction buffer (50 mM Tris/HCl pH 7.5, 10 mM CaCl2, 150 mM NaCl, 0.05% Brij®-35) in a white 384-hole microtiter plate (MTP). The enzymatic reaction is started by adding the intramolecularly quenched Mca-Arg-Pro-Lys-Pro-Val-Glu-Nval-Trp-Arg-Lys(Dnp)-NH2 substrate (final concentration, for example, 10 μM; R&D Systems, ES-002), so as to result in a total test volume of 50 μl. The course of the MMP-10 reaction is measured by measuring the fluorescence intensity (excitation 320 nm, emission 410 nm) over a suitable period of time (for example over 120 min at a temperature of 32° C.).

T1 sequence (P39900 106-470): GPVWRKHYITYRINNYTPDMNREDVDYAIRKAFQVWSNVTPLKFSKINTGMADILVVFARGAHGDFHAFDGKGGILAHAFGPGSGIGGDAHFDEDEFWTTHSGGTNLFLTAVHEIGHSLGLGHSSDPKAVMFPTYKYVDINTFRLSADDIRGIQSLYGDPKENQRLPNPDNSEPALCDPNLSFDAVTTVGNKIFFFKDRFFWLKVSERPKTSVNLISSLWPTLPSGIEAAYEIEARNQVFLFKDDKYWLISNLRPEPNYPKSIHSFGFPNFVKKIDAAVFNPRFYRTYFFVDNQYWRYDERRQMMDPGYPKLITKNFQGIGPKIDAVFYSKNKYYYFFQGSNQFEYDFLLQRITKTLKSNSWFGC

Compound	IC50 [1] [nM]	IC50 [2] [nM]	IC50 [3] [nM]	IC50 [4] [nM]	IC50 [5] [nM]
Cc1ccc2nnn(C[C@@H]3CC[C@H](C(=O)c4ccc(OCc5cccc(Cl)c5)cc4)[C@H]3C(=O)O)c(=O)c2c1 (racemic) [Example 103, (+/−)-(1RS,2RS,5SR)-2-{4-[(3-Chlorobenzyl)oxy]benzoyl}-5-[(6-methyl-4-oxo-1,2,3-benzotriazin-3(4H)-yl)methyl]cyclopentanecarboxylic acid]	0.1	340	41	110	35
(+)-(1RS,2SR,5RS)-2-{[4-Oxo-6-(trifluoromethyl)-1,2,3-benzotriazin-3(4H)-yl]methyl}-5-{4-[(2-phenylethy)sulphanyl]benzoyl}cyclopentanecarboxylic acid [Example 83]	0.11	450	260	2100	120
Cc1cccc(COc2ccc(C(=O)[C@@H]3CC[C@H](Cn4nnc5ccc(C(F)(F)F)cc5c4=O)[C@H]3C(=O)O)cc2)c1 (single isomer, unassigned) [Example 16, (+)-(1RS,2RS,5SR)-2-{4-[(3-Methylbenzyl)oxy]benzoyl}-5-{[4-oxo-6-(trifluoromethyl)-1,2,3-benzotriazin-3(4H)-yl]methyl}cyclopentanecarboxylic acid]	0.064	350	65	440	37
O=C(O)[C@@H]1[C@@H](Cn2nnc3ccc(C(F)(F)F)cc3c2=O)CC[C@H]1C(=O)c1ccc(SCc2ccccc2)cc1 (single isomer, unassigned) [Example 75, (+)-(1RS,2RS,5SR)-2-[4-(Benzylsulphanyl)benzoyl]-5-{[4-oxo-6-(trifluoromethyl)-1,2,3-benzotriazin-3(4H)-yl]methyl}cyclopentanecarboxylic acid]	0.051	170	74	470	57
Cc1ccc2nnn(C[C@H]3CC[C@@H](C(=O)c4ccc(OCc5cccc(OC(F)(F)F)c5)cc4)[C@@H]3C(=O)O)c(=O)c2c1 (single isomer, unassigned) [Example 110, (+)-(1RS,2SR,5RS)-2-[(6-Methyl-4-oxo-1,2,3-benzotriazin-3(4H)-yl)methyl]-5-(4-{[3-(trifluoromethoxy)benzyl]oxy}benzoyl)cyclopentanecarboxylic acid]	0.087	920	120	380	130
Cc1ccc2nnn(C[C@H]3CC[C@@H](C(=O)c4ccc(OCc5cccc(C(F)(F)F)c5)cc4)[C@@H]3C(=O)O)c(=O)c2c1 (single isomer, unassigned) [Example 101, (+)-(1RS,2SR,5RS)-2-[(6-Methyl-4-oxo-1,2,3-benzotriazin-3(4H)-yl)methyl]-5-(4-{[3-(trifluoromethyl)benzyl]oxy}benzoyl)cyclopentanecarboxylic acid]	0.086	880	29	100	110
CCCCCSc1ccc(C(=O)[C@H]2CC[C@@H](Cn3nnc4ccc(C(F)(F)F)cc4c3=O)[C@@H]2C(=O)O)cc1 (racemic) [Example 88, (+/−)-(1RS,2SR,5RS)-2-{[4-Oxo-6-(trifluoromethyl)-1,2,3-benzotriazin-3(4H)-yl]methyl}-5-[4-(pentylsulphanyl)benzoyl]cyclopentanecarboxylic acid]	0.023	96	6.2	55	22
Cc1ccc2nnn(C[C@@H]3CC[C@H](C(=O)c4ccc(OCc5ccccc5)cc4)[C@H]3C(=O)O)c(=O)c2c1 (racemic) [Example 91, (+/−)-(1RS,2RS,5SR)-2-[4-(Benzyloxy)benzoyl]-5-[(6-methyl-4-oxo-1,2,3-benzotriazin-3(4H)-yl)methyl]cyclopentanecarboxylic acid]	0.074	190	3	21	21
O=C(O)[C@@H]1[C@@H](Cn2nnc3ccc(C(F)(F)F)cc3c2=O)CC[C@H]1C(=O)c1ccc(OCc2ccc(Cl)cc2)cc1 (single isomer, unassigned) [Example 25, (+)-(1RS,2RS,5SR)-2-{4-[(4-Chlorobenzyl)oxy]benzoyl}-5-{[4-oxo-6-(trifluoromethyl)-1,2,3-benzotriazin-3(4H)-yl]methyl}cyclopentanecarboxylic acid]	0.013	63	0.79	3	19
O=C(O)[C@H]1[C@H](Cn2nnc3ccc(C(F)(F)F)cc3c2=O)CC[C@@H]1C(=O)c1ccc(OCCCc2ccccc2)cc1 (racemic) [Example 39, (+/−)-(1RS,2SR,5RS)-2-{[4-Oxo-6-(trifluoromethyl)-1,2,3-benzotriazin-3(4H)-yl]methyl}-5-[4-(3-phenylpropoxy)benzoyl]cyclopentanecarboxylic acid]	0.044	420	290	780	170
COC(=O)Nc1cccc(COc2ccc(C(=O)[C@@H]3CC[C@H](Cn4nnc5ccc(C(F)(F)F)cc5c4=O)[C@H]3C(=O)O)cc2)c1 (stereo in doubt) [Example 31, (+)-(1RS,2RS,5SR)-2-[4-({3-[(Methoxycarbonyl)amino]benzyl}oxy)benzoyl]-5-{[4-oxo-6-(trifluoromethyl)-1,2,3-benzotriazin-3(4H)-yl]methyl}cyclopentanecarboxylic acid]	0.012	280	9.1	2100	41
Cc1ccc2nnn(C[C@@H]3CC[C@H](C(=O)c4ccc(OCc5cccc(C(F)(F)F)c5)cc4)[C@H]3C(=O)O)c(=O)c2c1 (racemic) [Example 100, (+/−)-(1RS,2SR,5RS)-2-[(6-Methyl-4-oxo-1,2,3-benzotriazin-3(4H)-yl)methyl]-5-(4-{[3-(trifluoromethyl)benzyl]oxy}benzoyl)cyclopentanecarboxylic acid]	0.08	1500	43	160	160
